Entries after “also recorded” stand apart in the source; their conditions may differ. Where a name gives a salt, the structure may show the parent alone. Read-outs that look alike come from different tables or passages of the source.
Tests used:
rat [1] = assay: analgetic effect, hot plate (rat); assay type: in vivo
rat [2] = assay: analgetic effect, tail flick (rat); assay type: in vivo
rat [3] = assay: animal or person; settings: read-out: algolyt. test (rat) 100% activity
mice = assay: analgetic effect, writhing test (mice); assay type: in vivo
rats = assay: sedative (narcosis potentiating) effect, Inactine base narcotic, rats; assay type: in vivo
Method: Inactine (35 mg/kg) was used as a base narcotic.
*ED500 % = dose increasing narcosis to five times the control.

rabbits [4] = assay: effects on respiration on conscious rabbits (III.5, Marey-drum)
Method: Investigation was carried out on conscious rabbits of both sexes and of 3-4 kg weight by way of a Marey-drum. Frequency and amplitude of respiration were quantitatively evaluated.

[5] = molecular target: (^3 H)naloxone binding sites; assay: competition binding assay with (3H)naloxone on rat brain membranes; settings: membranes incubated with (3H)naloxone 1 nM and increasing ligand concentrations; read-out: Affinity constants (Ki nM) in competition assays
Method: (§1) Membrane preparation: A crude membrane fraction from rat brain (PVG/C strain) was prepared [Mol. Pharm.11 (1975) 340-351 and the protein content was defined [Anal. Biochem. 72(1976) 248-254).
(§2) The membrane suspension (200-400 μg protein) was incubated with the specific radioligand for 1 hour on ice. Incubations were terminated by rapid filtration under vacuo followed by washing with ice cold tris HCl buffer (50 mM, pH 7,4). Radioactivity was measured in a toluene based scintillation mixture on a LKB Minibeta Liquid Scintillation Spectrophotometer. Nonspecific binding was defined in the presence of 10 μM unlabeled naloxone. All assays were performed in triplicate and repeated several times. Ki values were determined from equilibrium experiments and calculated with the Tshang-Prusov equation. The data were evaluated using the Ligand program [Anal. Biol. Chem. 107 (1980) 220-239](Data shown on Table III/1).

[6] = molecular target: (^3 H)naloxone binding sites; assay: wash-resistant binding of (3H)naloxone, rat brain membranes; settings: preincubated with (3H)naloxone 1 nM and test compound; remaining specific binding after several washings; average of 2-4 data; compound.HCl; read-out: Ki (nM), affinity constants
Method: as §1, §2
After preincubation a thorough washing was performed. [Life Sci. 32 (1983) 2777-2784]. Control values are represented by the specific binding of (3H)naloxone to membranes preincubated with a buffer and treated in the same way. Heterologous displacement experiments were used to evaluate the affinity of the investigated compounds for (^3 H)naloxone binding sites.

rabbits [7] = assay: effect on respiration on conscious rabbits (III.6, type A/B/C tests); assay type: in vivo; set-up: resp. change ampl.: unit not given here
Method: The method as described above in Example III.5 was used on conscious rabbits of 2,5-3 kg weight. Registration was continued for 3-4 hours. The samples were injected under the skin of the neck and the respiration parameters were registered at intervals of 10 minutes.

[8] = Rattus norvegicus; read-out: hot plate (rat) ED50
[9] = Rattus norvegicus; read-out: tail flick (rat) ED50
[10] = Mus musculus; read-out: writhing test (mice) ED50
[11] = s.c. on rats, Inactine 35 mg/kg, dose as base
[12] = type A: DP 0.01 mg/kg s.c., 10'
[13] = type A: DP 0.01 mg/kg s.c., 20'
[14] = type A: DP 0.025 mg/kg s.c., 10'
[15] = type A: DP 0.025 mg/kg s.c., 20'
[16] = type A: DP 0.05 mg/kg s.c., 10'
[17] = type C: DP 0.25 mg/kg together with morphine 5 mg/kg s.c., 10'
[18] = type C: DP 0.25 mg/kg together with morphine 5 mg/kg s.c., 20'
[19] = type C: DP 0.25 mg/kg together with morphine 5 mg/kg s.c., 30'
[20] = type C: DP 0.25 mg/kg together with morphine 5 mg/kg s.c., 50'
[21] = Rattus norvegicus, read-out: hot plate (rat) ED50
[22] = Rattus norvegicus, read-out: tail flick (rat) ED50
[23] = Mus musculus, read-out: writhing test (mice) ED50
[24] = OX 0.5 mg/kg s.c. + naloxone 0.25 mg/kg, 10 min
[25] = OX 0.5 mg/kg s.c., 10 min (line before naloxone)
[26] = type A: OX 0.1 mg/kg s.c. +5 mg/kg morphine, 30 min
[27] = type A: OX 0.1 mg/kg s.c. +5 mg/kg morphine, 40 min
[28] = type A: OX 0.1 mg/kg s.c., 10 min
[29] = type A: OP 0.1 mg/kg s.c., 10 min
[30] = type A: OP 0.5 mg/kg s.c., 10 min
[31] = type A: OP 0.5 mg/kg s.c., then morphine 5 mg/kg s.c., 10 min
[32] = type A: OP 0.5 mg/kg s.c., then morphine 5 mg/kg s.c., 60 min
[33] = type B: morphine 5 mg/kg s.c., then OP 1.0 mg/kg s.c., 20 min
[34] = type B: morphine 5 mg/kg s.c., then OP 1.0 mg/kg s.c., 30 min
[35] = type C: OP 0.25 mg/kg with morphine 5 mg/kg s.c., 20 min
[36] = type C: OP 0.25 mg/kg with morphine 5 mg/kg s.c., 30 min
[37] = type C: OP 0.25 mg/kg with morphine 10 mg/kg s.c., 10 min
[38] = type C: OP 0.25 mg/kg with morphine 20 mg/kg s.c., 30 min

COc1ccc2c3c1O[C@H]1C(=NNC(N)=S)CC[C@H]4[C@@H](C2)N(C)CC[C@]314 [Dihydrocodeinone thio-semicarbazone.HCl, Dihydrocodeinone thio-semicarbazone]
ED50 (rat [1]; [8]): 1.7 mg/kg
ED50 (rat [2]; [9]): 0.6 mg/kg
ED100 (rat [3]): 5 mg/kg

COc1ccc2c3c1O[C@H]1C(=O)CC[C@H]4[C@@H](C2)N(C)CC[C@]314 [Dihydrocodeinone, reference compound]
ED50 (rat [1]; [8]): 2.2 mg/kg
ED50 (rat [2]; [9]): 0.98 mg/kg
ED50 (mice; [10]): 0.9 mg/kg
ED500 % (dose increasing narcosis to five times the control) (rats; [11]): 1,9 mg/kg
respiration effect (rabbits [4]; 10-5500 μg/kg i.v., s.c.): depression
respiration frequency/min. (rabbits [4]; 10-5500 μg/kg i.v., s.c.): .dwnarw.
respiration volume (rabbits [4]; 10-5500 μg/kg i.v., s.c.): .dwnarw.
influence on the respiratory depression effect of morphine (in words) (rabbits [4]; rabbit, in vivo): unambiguously potentiate the respiratory depression effect of morphine
respiratory depression by the compound alone (in words) (rabbits [4]; rabbit, in vivo, sc): cause respiratory depression
ED100 (rat [3]): 4.9 mg/kg

COc1ccc2c3c1O[C@H]1C(=NO)CC[C@H]4[C@@H](C2)N(C)CC[C@]314 [Dihydrocodeinone-oxime, DIHYDROCODEINON-OXIME]
Ki [5]: 52 nM
Ki [6]: 53 nM
ED50 (rat [1]; [8]): 4.2 mg/kg
ED50 (rat [2]; [9]): 3.7 mg/kg
ED50 (mice; [10]): 0.38 mg/kg
ED100 (rat [3]): 25 mg/kg

COc1ccc2c3c1O[C@H]1C(=NNc4ccccc4)CC[C@H]4[C@@H](C2)N(C)CC[C@]314 [Dihydrocodeinone-phenylhydrazone]
Ki [5]: 323 nM
Ki [6]: 323 nM
ED50 (rat [1]; [8]): 2.4 mg/kg
ED50 (rat [2]; [9]): 2.3 mg/kg
ED500 % (dose increasing narcosis to five times the control) (rats; [11]): 3,5 mg/kg
resp. change ampl. (rabbits [7]; [12]): 0
resp. change fr/min (rabbits [7]; [12]): +85
resp. change ampl. (rabbits [7]; [13]): 0
resp. change fr/min (rabbits [7]; [13]): +96
resp. change ampl. (rabbits [7]; [14]): 0
resp. change fr/min (rabbits [7]; [14]): +114
resp. change ampl. (rabbits [7]; [15]): 0
resp. change fr/min (rabbits [7]; [15]): +114
resp. change ampl. (rabbits [7]; [16]): 0
resp. change fr/min (rabbits [7]; [16]): +132
resp. change ampl. (rabbits [7]; [17]): 0
resp. change fr/min (rabbits [7]; [17]): +39
resp. change ampl. (rabbits [7]; [18]): 0
resp. change fr/min (rabbits [7]; [18]): +19
resp. change ampl. (rabbits [7]; [19]): 0
resp. change fr/min (rabbits [7]; [19]): -3
resp. change ampl. (rabbits [7]; [20]): 0
resp. change fr/min (rabbits [7]; [20]): -4
ED100 (rat [3]): 10.1 mg/kg

COc1ccc2c3c1O[C@H]1C(=NNC(N)=O)CC[C@H]4[C@@H](C2)N(C)CC[C@]314 [Dihydrocodeinone-semicarbazone.HCl, dihydrocodeinone-semicarbazone]
ED50 (rat [1]; [8]): 0.38 mg/kg
hot plate (rat) ED50 (rat [1]; rat): 0,38 mg/kg
ED50 (rat [2]; [9]): 0.35 mg/kg
ED500 % (dose increasing narcosis to five times the control) (rats; [11]): 1,0 mg/kg
ED100 (rat [3]): 10 mg/kg

COc1ccc2c3c1O[C@H]1C(=NO)CC[C@@]4(O)[C@@H](C2)N(C)CC[C@]314 [Oxycodone-oxime, 14-HYDROXY-DIHYDROCODEINONE-OXIME]
Ki [5]: 32 nM
Ki [6]: 32 nM
ED50 (rat [1]; [21]): 1.8 mg/kg
ED50 (rat [2]; [22]): 1 mg/kg
ED50 (mice; [23]): 0.11 mg/kg
ED500 % (dose increasing narcosis to five times the control) (rats; rat, in vivo): 0,5 mg/kg
potentiation of Inactine narcosis (in words) (rats; rat, in vivo): most effectively prolongated
resp. change ampl. (rabbits [7]; OX 0.005 mg/kg s.c., 30 min): +30
resp. change fr/min (rabbits [7]; OX 0.005 mg/kg s.c., 30 min): +30
resp. change ampl. (rabbits [7]; OX 0.025 mg/kg s.c., 30 min): 0
resp. change fr/min (rabbits [7]; OX 0.025 mg/kg s.c., 30 min): +28
resp. change ampl. (rabbits [7]; OX 0.1 mg/kg s.c., 30 min): +40
resp. change fr/min (rabbits [7]; OX 0.1 mg/kg s.c., 30 min): +47
resp. change ampl. (rabbits [7]; [24]): +50
resp. change fr/min (rabbits [7]; [24]): +50
resp. change ampl. (rabbits [7]; [25]): -50
resp. change fr/min (rabbits [7]; [25]): -50
respiration number (in words) (rabbits [7]; small doses): considerably increase the respiration number
resp. change ampl. (rabbits [7]; [26]): 0
resp. change fr/min (rabbits [7]; [26]): +71
resp. change ampl. (rabbits [7]; [27]): -40
resp. change fr/min (rabbits [7]; [27]): -29
resp. change ampl. (rabbits [7]; [28]): +20
resp. change fr/min (rabbits [7]; [28]): +57
ED100 (rat [3]): 10 mg/kg

COc1ccc2c3c1O[C@H]1C(=NNc4ccccc4)CC[C@@]4(O)[C@@H](C2)N(C)CC[C@]314 [Oxycodone-phenylhydrazone, 14-OH-DIHYDROCODEINONE-PHENYLHYDRAZONE (CIS)]
Ki [5]: 1150 nM
Ki [6]: 1150 nM
ED50 (rat [1]; [21]): 0.8 mg/kg
ED50 (rat [2]; [22]): 1.2 mg/kg
ED50 (mice; [23]): 1.2 mg/kg
ED500 % (dose increasing narcosis to five times the control) (rats; rat, in vivo): 1,5 mg/kg
influence on the respiratory depression effect of morphine (in words) (rabbits [4]; rabbit, in vivo): partially antagonizes the effect of morphine
respiration effect (rabbits [4]; rabbit, in vivo, sc): no change; also recorded: slight stym
resp. change ampl. (rabbits [7]; [29]): +20
resp. change fr/min (rabbits [7]; [29]): +33
resp. change ampl. (rabbits [7]; [30]): 0
resp. change fr/min (rabbits [7]; [30]): +16
resp. change ampl. (rabbits [7]; [31]): -20
resp. change fr/min (rabbits [7]; [31]): -17
resp. change ampl. (rabbits [7]; [32]): 0
resp. change fr/min (rabbits [7]; [32]): 0
resp. change ampl. (rabbits [7]; [33]): +15
resp. change fr/min (rabbits [7]; [33]): -16
resp. change ampl. (rabbits [7]; [34]): +20
resp. change fr/min (rabbits [7]; [34]): -6
resp. change ampl. (rabbits [7]; [35]): +20
resp. change fr/min (rabbits [7]; [35]): +44
resp. change ampl. (rabbits [7]; [36]): +30
resp. change fr/min (rabbits [7]; [36]): +92
resp. change ampl. (rabbits [7]; [37]): +20
resp. change fr/min (rabbits [7]; [37]): +23
resp. change ampl. (rabbits [7]; [38]): 0
resp. change fr/min (rabbits [7]; [38]): -8
ED100 (rat [3]): 10 mg/kg

COc1ccc2c3c1O[C@H]1C(=NNC(N)=S)CC[C@@]4(O)[C@@H](C2)N(C)CC[C@]314 [Oxycodone-thiosemicarbazone.HCl, Oxycodone-thiosemicarbazone]
ED50 (rat [1]; [8]): 8.5 mg/kg
ED50 (rat [2]; [9]): 4.5 mg/kg
ED100 (rat [3]): 100 mg/kg

CN1CC[C@]23c4c5ccc(O)c4O[C@H]2C(=NN)CC[C@H]3[C@H]1C5 [dihydromorphinone hydrazone]
Ki [5]: 6 nM

CN1CC[C@]23c4c5ccc(O)c4O[C@H]2C(=NO)CC[C@H]3[C@H]1C5 [dihydromorphinone oxime]
Ki [5]: 2 nM

CN1CC[C@]23c4c5ccc(O)c4O[C@H]2C(=NNc2ccccc2)CC[C@H]3[C@H]1C5 [dihydromorphinone phenylhydrazone]
Ki [5]: 5 nM

CN1CC[C@]23c4c5ccc(O)c4O[C@H]2C(=NNC(N)=O)CC[C@H]3[C@H]1C5 [dihydromorphinone semicarbazone]
Ki [5]: 3 nM

CN1CC[C@]23c4c5ccc(O)c4O[C@H]2C(=NN)CC[C@@]3(O)[C@H]1C5 [oxymorphone hydrazone]
Ki [5]: 2 nM

CN1CC[C@]23c4c5ccc(O)c4O[C@H]2C(=NO)CC[C@@]3(O)[C@H]1C5 [oxymorphone oxime]
Ki [5]: 2 nM

CN1CC[C@]23c4c5ccc(O)c4O[C@H]2C(=NNc2ccccc2)CC[C@@]3(O)[C@H]1C5 [oxymorphone phenylhydrazone]
Ki [5]: 20 nM

CN1CC[C@]23c4c5ccc(O)c4O[C@H]2C(=NNC(N)=O)CC[C@@]3(O)[C@H]1C5 [oxymorphone semicarbazone]
Ki [5]: 4 nM

From patent publication US5317022A, “Pharmaceutical composition and use” (priority 1991, dated 1994)
